Measurements from publication PMC9780108, “An intrinsically disordered antimicrobial peptide dendrimer from stereorandomized virtual screening” (Cell Reports. Physical Science, 2022).
≈ marks a conversion by molar mass, not a printed value. Positions of bridges follow the written chain, without caps; N, C: chain ends. Non-standard residues stand in square brackets, D forms with d. Residues, ends and D or L forms follow the SMILES beside them. Groups on a side chain read outwards from the residue. Chains are numbered I, II in the order given. *: point of attachment. X3 = CC(C)C[C@H](NC(=O)CCCCCN)C(=O)NCCCC[C@H](NC(=O)[C@H](CC(C)C)NC(=O)CCCCCN)C(=O)*; Ahx = NCCCCCC(=O)O

Columns and labels:
E. coli W3110 = settings: for MIC at pH 5.0, E. coli W3110: W3110, pH 5; for MIC at pH 7.4, E. coli W3110: W3110, pH 7.4; for MIC at pH 8.0, E. coli W3110: W3110, pH 8
A. baumannii ATCC 19606 = settings: for MIC at pH 5.0, A. baumannii ATCC 19606: ATCC 19606, pH 5; for MIC at pH 7.4, A. baumannii ATCC 19606: ATCC 19606, pH 7.4; for MIC at pH 8.0, A. baumannii ATCC 19606: ATCC 19606, pH 8
P. aeruginosa PAO1 = settings: for MIC at pH 5.0, P. aeruginosa PAO1: PAO1, pH 5; for MIC at pH 7.4, P. aeruginosa PAO1: PAO1, pH 7.4; for MIC at pH 8.0, P. aeruginosa PAO1: PAO1, pH 8
K. pneumoniae NCTC 418 = settings: for MIC at pH 5.0, K. pneumoniae NCTC 418: NCTC 418, pH 5; for MIC at pH 7.4, K. pneumoniae NCTC 418: NCTC 418, pH 7.4; for MIC at pH 8.0, K. pneumoniae NCTC 418: NCTC 418, pH 8
[1] = test system: S aureus COL (methicillin-resistant Staphylococcus aureus); settings: for MIC at pH 5.0, S aureus COL: COL (methicillin-resistant, pH 5); for MIC at pH 7.4, S aureus COL: COL (methicillin-resistant, pH 7.4); for MIC at pH 8.0, S aureus COL: COL (methicillin-resistant, pH 8)
S. maltophilia = settings: pH 7.4
P. aeruginosa PA14 = settings: PA14, pH 7.4
P. aeruginosa ZEM-1A = settings: ZEM-1A, pH 7.4
E. cloacae = settings: pH 7.4
K. pneumoniae OXA-48 = settings: OXA-48, pH 7.4
P. aeruginosa ZEM9A = settings: ZEM9A, pH 7.4
B. cenocepacia = settings: pH 7.4
S. aureus Newman = settings: Newman, pH 7.4
HEK293 cell line = format: cell-based; settings: 48 h
Experimental: HEK 293 cell line were cultured and maintained in DMEM (Dulbeccos modified Eagle
medium, Sigma Aldrich) supplemented with 10% FBS (Sigma Aldrich) and 1%
penicillin/streptomycin. Cells were incubated in a humidified incubator at 37°C in the presence
HEK 293 cell were seeded into 96 well plates at the density of 2 × 10^3 cells/well and incubated
in DMEM containing 10% FBS for 10-14 hours at 37°C in the presence of 5% CO2. The next
day, stock solution of compounds were prepared at concentration of 2 mg/mL in DMEM
containing 10% FBS. 1/2 or 1/3 serial dilution of the peptide dendrimers from 2 mg/mL or 200
µg/mL were performed in DMEM containing 10% FBS. The medium was removed from cell
culture and replaced with the compounds at different concentration after washing with PBS.
The cells were incubated in DMEM containing 10% FBS at 37°C in the presence of 5% CO 2.
Negative control was untreated cell culture without compounds and blank control was wells
without cell but only medium. After 48 hours, a final concentration of 10% AlamarBlue®
(Thermo Fisher Scientific, Reinach, CH) was added to each well . The cells were incubated for
3-5 hours at 37°C with 5% CO 2. The fluorescence was then measured on a Tecan Infinite
M1000 Pro plate reader at λex = 560 nm and λem = 590 nm. The value was normalized
according to the untreated cells.

Compound	MIC at pH 5.0, E. coli W3110 (E. coli W3110) [μg/mL]	MIC at pH 7.4, E. coli W3110 (E. coli W3110) [μg/mL]	MIC at pH 8.0, E. coli W3110 (E. coli W3110) [μg/mL]	MIC at pH 5.0, A. baumannii ATCC 19606 (A. baumannii ATCC 19606) [μg/mL]	MIC at pH 7.4, A. baumannii ATCC 19606 (A. baumannii ATCC 19606) [μg/mL]	MIC at pH 8.0, A. baumannii ATCC 19606 (A. baumannii ATCC 19606) [μg/mL]	MIC at pH 5.0, P. aeruginosa PAO1 (P. aeruginosa PAO1) [μg/mL]	MIC at pH 7.4, P. aeruginosa PAO1 (P. aeruginosa PAO1) [μg/mL]	MIC at pH 8.0, P. aeruginosa PAO1 (P. aeruginosa PAO1) [μg/mL]	MIC at pH 5.0, K. pneumoniae NCTC 418 (K. pneumoniae NCTC 418) [μg/mL]	MIC at pH 7.4, K. pneumoniae NCTC 418 (K. pneumoniae NCTC 418) [μg/mL]	MIC at pH 8.0, K. pneumoniae NCTC 418 (K. pneumoniae NCTC 418) [μg/mL]	MIC at pH 5.0, S aureus COL [1] [μg/mL]	MIC at pH 7.4, S aureus COL [1] [μg/mL]	MIC at pH 8.0, S aureus COL [1] [μg/mL]	MIC, S. maltophilia (S. maltophilia) [µg/mL]	MIC, P. aeruginosa PA14 (P. aeruginosa PA14) [µg/mL]	MIC, P. aeruginosa ZEM-1A (P. aeruginosa ZEM-1A) [µg/mL]	MIC, E. cloacae (E. cloacae) [µg/mL]	MIC, K. pneumoniae OXA-48 (K. pneumoniae OXA-48) [µg/mL]	other results
CC(C)C[C@@H](NC(=O)[C@H](N)CCCCN)C(=O)NCCCC[C@@H](NC(=O)[C@@H](CC(C)C)NC(=O)[C@H](N)CCCCN)C(=O)N[C@H](CC(C)C)C(=O)NCCCC[C@@H](NC(=O)[C@@H](CC(C)C)NC(=O)[C@@H](CCCCNC(=O)[C@@H](CC(C)C)NC(=O)[C@H](N)CCCCN)NC(=O)[C@@H](CC(C)C)NC(=O)[C@H](N)CCCCN)C(=O)N[C@H](CCCCN)C(=O)N[C@H](CC(C)C)C(=O)N[C@H](CC(C)C)C(=O)NCCCC[C@@H](NC(=O)[C@@H](CC(C)C)NC(=O)[C@@H](CC(C)C)NC(=O)[C@@H](CCCCN)NC(=O)[C@@H](CCCCNC(=O)[C@@H](CC(C)C)NC(=O)[C@@H](CCCCNC(=O)[C@@H](CC(C)C)NC(=O)[C@H](N)CCCCN)NC(=O)[C@@H](CC(C)C)NC(=O)[C@H](N)CCCCN)NC(=O)[C@@H](CC(C)C)NC(=O)[C@@H](CCCCNC(=O)[C@@H](CC(C)C)NC(=O)[C@H](N)CCCCN)NC(=O)[C@@H](CC(C)C)NC(=O)[C@H](N)CCCCN)C(=O)N[C@H](CC(C)C)C(=O)N[C@H](CCCCN)C(=O)N[C@H](CCCCN)C(N)=O [D-X22] (HELM PEPTIDE1{[dK].[dL].[dK].[dL].[dK].[dK].[dL].[dL].[dK].[dL].[dK].[dK].[am]}|PEPTIDE2{[CC(C)C[C@@H](NC(=O)[C@H](N)CCCCN)C(=O)NCCCC[C@@H](NC(=O)[C@@H](CC(C)C)NC(=O)[C@H](N)CCCCN)C(=O)[*:2]].[dL]}|PEPTIDE3{[dK].[dL]}|PEPTIDE4{[dK].[dL].[dK].[dL].[dK].[dK].[dL].[dL]}|PEPTIDE5{[CC(C)C[C@@H](NC(=O)[C@H](N)CCCCN)C(=O)NCCCC[C@@H](NC(=O)[C@@H](CC(C)C)NC(=O)[C@H](N)CCCCN)C(=O)[*:2]].[dL]}|PEPTIDE6{[dK].[dL]}$PEPTIDE1,PEPTIDE2,5:R3-2:R2|PEPTIDE1,PEPTIDE3,3:R3-2:R2|PEPTIDE4,PEPTIDE5,5:R3-2:R2|PEPTIDE4,PEPTIDE6,3:R3-2:R2|PEPTIDE1,PEPTIDE4,9:R3-8:R2$$$V2.0)	8	4	4	16	8	4	16	4	4	> 64	> 64	16	> 64	> 64	4	4 (≈ 0.914 µM)	4 (≈ 0.914 µM)	4 (≈ 0.914 µM)	8 (≈ 1.83 µM)	4 (≈ 0.914 µM)	MIC, P. aeruginosa ZEM9A (P. aeruginosa ZEM9A): 8 µg/mL (≈ 1.83 µM); MIC, B. cenocepacia (B. cenocepacia): >64 µg/mL; MIC, S. aureus Newman (S. aureus Newman): 64 µg/mL (≈ 14.6 µM)
CC(C)C[C@H](NC(=O)[C@H](CC(C)C)NC(=O)[C@H](CCCCN)NC(=O)[C@H](CCCCNC(=O)[C@H](CC(C)C)NC(=O)[C@H](CCCCNC(=O)[C@H](CC(C)C)NC(=O)[C@@H](N)CCCCN)NC(=O)[C@H](CC(C)C)NC(=O)[C@@H](N)CCCCN)NC(=O)[C@H](CC(C)C)NC(=O)[C@H](CCCCNC(=O)[C@H](CC(C)C)NC(=O)[C@@H](N)CCCCN)NC(=O)[C@H](CC(C)C)NC(=O)[C@@H](N)CCCCN)C(=O)NCCCC[C@H](NC(=O)[C@H](CC(C)C)NC(=O)[C@H](CC(C)C)NC(=O)[C@H](CCCCN)NC(=O)[C@H](CCCCNC(=O)[C@H](CC(C)C)NC(=O)[C@H](CCCCNC(=O)[C@H](CC(C)C)NC(=O)[C@@H](N)CCCCN)NC(=O)[C@H](CC(C)C)NC(=O)[C@@H](N)CCCCN)NC(=O)[C@H](CC(C)C)NC(=O)[C@H](CCCCNC(=O)[C@H](CC(C)C)NC(=O)[C@@H](N)CCCCN)NC(=O)[C@H](CC(C)C)NC(=O)[C@@H](N)CCCCN)C(=O)N[C@@H](CC(C)C)C(=O)N[C@@H](CCCCN)C(=O)N[C@@H](CCCCN)C(N)=O [L-X22] (HELM PEPTIDE1{K.L.K.L.K.K.L.L.K.L.K.K.[am]}|PEPTIDE2{[CC(C)C[C@H](NC(=O)[C@@H](N)CCCCN)C(=O)NCCCC[C@H](NC(=O)[C@H](CC(C)C)NC(=O)[C@@H](N)CCCCN)C(=O)[*:2]].L}|PEPTIDE3{K.L}|PEPTIDE4{K.L.K.L.K.K.L.L}|PEPTIDE5{[CC(C)C[C@H](NC(=O)[C@@H](N)CCCCN)C(=O)NCCCC[C@H](NC(=O)[C@H](CC(C)C)NC(=O)[C@@H](N)CCCCN)C(=O)[*:2]].L}|PEPTIDE6{K.L}$PEPTIDE1,PEPTIDE2,5:R3-2:R2|PEPTIDE1,PEPTIDE3,3:R3-2:R2|PEPTIDE4,PEPTIDE5,5:R3-2:R2|PEPTIDE4,PEPTIDE6,3:R3-2:R2|PEPTIDE1,PEPTIDE4,9:R3-8:R2$$$V2.0)	8	4	2	8	4	2	8	4	4	> 64	> 64	8	> 64	> 64	8	4 (≈ 0.914 µM)	4 (≈ 0.914 µM)	4 (≈ 0.914 µM)	4 (≈ 0.914 µM)	8 (≈ 1.83 µM)	MIC, P. aeruginosa ZEM9A (P. aeruginosa ZEM9A): 32 µg/mL (≈ 7.31 µM); MIC, B. cenocepacia (B. cenocepacia): >64 µg/mL; MIC, S. aureus Newman (S. aureus Newman): >64 µg/mL
CC(C)C[C@H](NC(=O)CCCCCN)C(=O)NCCCC[C@H](NC(=O)[C@H](CC(C)C)NC(=O)CCCCCN)C(=O)N[C@@H](CC(C)C)C(=O)NCCCC[C@H](NC(=O)[C@H](CC(C)C)NC(=O)[C@H](CCCCNC(=O)[C@H](CC(C)C)NC(=O)CCCCCN)NC(=O)[C@H](CC(C)C)NC(=O)CCCCCN)C(=O)N[C@@H](CCCCN)C(=O)N[C@@H](CC(C)C)C(=O)N[C@@H](CC(C)C)C(=O)NCCCC[C@H](NC(=O)[C@H](CC(C)C)NC(=O)[C@H](CC(C)C)NC(=O)[C@H](CCCCN)NC(=O)[C@H](CCCCNC(=O)[C@H](CC(C)C)NC(=O)[C@H](CCCCNC(=O)[C@H](CC(C)C)NC(=O)CCCCCN)NC(=O)[C@H](CC(C)C)NC(=O)CCCCCN)NC(=O)[C@H](CC(C)C)NC(=O)[C@H](CCCCNC(=O)[C@H](CC(C)C)NC(=O)CCCCCN)NC(=O)[C@H](CC(C)C)NC(=O)CCCCCN)C(=O)N[C@@H](CC(C)C)C(=O)N[C@@H](CCCCN)C(=O)N[C@@H](CCCCN)C(N)=O [L-aX22] (I: H-[Ahx]LK([Leu-Ahx])LK([Leu-X3])KLLKLKK-NH2 / II: H-[Ahx]LK([Leu-Ahx])LK([Leu-X3])KLL; amide I:9-II:C)	2	4	4	2	4	4	16	8	16	64	8	8	64	16	4						IC50 HEK293 (HEK293 cell line): 24 ± 3 µg/mL (≈ 5.64 µM)
